In patent US20180273970A1, “PLASMID, TRANSFORMED PLANT CELL AND TRANSGENIC PLANT COMPRISING THE SAME, AND METHODS FOR PREPARING A TRANSGENIC PLANT AND FOR INCREASING YIELD OF A PLANT UNDER ABIOTIC STRESSES” (Academia Sinica, priority 2014, published 2018):

Legend:
rice seedlings [1] = test: Seed germination and shoot elongation in air or under water (hypoxia); type: in vivo; settings: under water with 90 mM sucrose
Protocol: FIG. 6. SKINs suppress sugar production necessary for seedling growth under hypoxia. Rice seeds were germinated in air or in water with or without 90 mM sucrose at 28° C. under a 14-h light/10-h dark cycle for various lengths of time. Shoot length of seedlings were measured daily. Error bars indicate the S.E. of shoot length (n=10). Panel 1: transgenic line SKIN1-04 overexpressing SKIN1; panel 2: transgenic line SKIN2-04 overexpressing SKIN2. For data using more SKIN-Ox and SKIN-Ri lines, see also FIG. 16 online.
FIG. 16. SKINs suppress sugar production necessary for underwater seedling growth. Rice seeds of SKIN-Ox and SKIN-Ri lines were germinated in air or in water with or without 90 mM sucrose for various lengths of time. Shoot length of seedlings were measured daily. Error bars indicate the S.E. of shoot length (n=10). Panel 1: in air; panel 2: in water; panel 3: in water with sucrose.
The experiment was performed as described (Lee et al., 2009). For germination in air, seeds were placed on 3M filter papers wetted with water in a 50-ml centrifuge tube which contains half-strength MS agar medium. For germination under water, seeds were placed in a 50-ml centrifuge tube, autoclaved water was carefully poured into the tube to avoid any air bubbles, and tubes were sealed with lids.

rice seedlings [2] = test: Seedling shoot and root growth under light/dark cycle or continuous darkness, with or without sucrose; type: in vivo; settings: 3% (88 mM) sucrose, 6 days
Protocol: FIG. 5. SKINs repress seedling growth by inhibiting nutrient mobilization in the endosperm. Transgenic lines SKIN1-Ox(O3), SKIN1-Ri(R3), SKIN2-Ox(02) and SKIN2-Ri(R1) were used in the following experiments. (A) Seeds were germinated and grown in water at 28° C. under a 14-h light/10-h dark cycle or continuous darkness without (panel 1) or with (panel 2) 3% (90 mM) sucrose for 6 days. (B) Lengths of shoots and roots of seedlings in (A) were quantified. Panels 1 and 2, without and with sucrose, respectively. (C) Seedlings were grown under a 14-h light/10-h dark cycle or continuous darkness for 3 days. Total RNA was extracted and subjected to quantitative (real-time) RT-PCR analysis using primers specific for αAmy3 (panel 1) and EP3A (panel 2). Error bars represent SE (n=12) at significance levels: * p<0.1, **p<0.05 in (B) and (C).
Rice (Oryza sativa cv Tainung 67) and barley (Hordeum vulgare cv Himalaya) were used in this study. Embryo calli were induced in the Murashige & Skoog (MS) medium containing 3% sucrose and […] 2,4-D (2,4-Dichlorophenoxyacetic acid) for 5 days. For hydroponic culture of rice seedlings, seeds were sterilized with 1.5% NaOCl plus Tween 20 for 1 h, washed extensively with distilled water, and germinated in a petri dish with wetted filter papers at 28° C. under a 14-h light/10-h dark condition unless otherwise indicated. […]

[3] = molecular target: T1, SnRK1A (full length, expressed from Ubi:SnRK1A) (rice, UniProt Q852Q2 1-505); test: co-expression and confocal localization of GFP fusions in barley aleurone cells
T1 construct: range 1-505; also called pUbi-SnRK1A-Nos
T1 sequence (looked up): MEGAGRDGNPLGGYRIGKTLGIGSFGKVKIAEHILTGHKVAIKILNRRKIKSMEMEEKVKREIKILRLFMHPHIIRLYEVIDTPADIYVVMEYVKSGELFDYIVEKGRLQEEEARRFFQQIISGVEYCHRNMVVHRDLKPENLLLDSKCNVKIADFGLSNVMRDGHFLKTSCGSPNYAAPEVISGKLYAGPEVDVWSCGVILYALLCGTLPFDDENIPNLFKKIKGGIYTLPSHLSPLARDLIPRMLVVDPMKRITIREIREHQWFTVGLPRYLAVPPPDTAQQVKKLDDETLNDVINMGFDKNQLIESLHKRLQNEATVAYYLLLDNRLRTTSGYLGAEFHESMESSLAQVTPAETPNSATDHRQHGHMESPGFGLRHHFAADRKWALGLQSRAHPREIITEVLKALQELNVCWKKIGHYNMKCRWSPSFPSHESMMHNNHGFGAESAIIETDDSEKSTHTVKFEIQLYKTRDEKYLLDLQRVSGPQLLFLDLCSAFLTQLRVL
Protocol: Detection of cellular localization of SKIN-GFP, SnRK1A-GFP and MYBS1-GFP fusion proteins were performed as described (Hong et al., 2012). Embryoless barley and rice seeds were sterilized with 1% NaOCl for 30 mins, and incubated in a buffer containing 20 mM CaCl₂ and 20 mM sodium succinate, pH 5.0, for 4 days. Aleurone layers were isolated by scratching away starch in the endosperm with a razor blade. Four aleurone layers were arranged in a 10-cm dish for bombardment. Aleurone layers expressing GFP were examined with a Ziess confocal microscope (LSM510META) using a 488-nm laser line for excitation and a 515- to 560-nm long pass filter for emission.
The subcellular localization of SKIN and SnRK1A was determined. As SKINs interact with the KD of SnRK1A, the full-length, KD and RD of SnRK1A were fused to the green fluorescence protein (GFP) and expressed under the control of the Ubi promoter in a barley aleurone cell transient expression system (Hong et al., 2012). As shown in FIG. 7 and FIG. 17, SnRK1A-GFP and SnRK1A-KD-GFP were largely localized in the cytoplasm and minor in the nucleus and SnRK1A-RD-GFP mainly in the nucleus, whereas SKIN1-GFP was predominantly localized in the nucleus and minor in the cytoplasm. Co-expression of SnRK1A-GFP with SKIN1 excluded all SnRK1A-GFP from the nucleus. […]

[4] = molecular target: T2, GAD-SnRK1A (full-length SnRK1A 1-505 fused to the Gal4 activation domain) (rice, UniProt Q852Q2 1-505); test: rice embryo GAL4-UAS two-hybrid, luciferase reporter
T2 construct: range 1-505
T2 sequence (looked up): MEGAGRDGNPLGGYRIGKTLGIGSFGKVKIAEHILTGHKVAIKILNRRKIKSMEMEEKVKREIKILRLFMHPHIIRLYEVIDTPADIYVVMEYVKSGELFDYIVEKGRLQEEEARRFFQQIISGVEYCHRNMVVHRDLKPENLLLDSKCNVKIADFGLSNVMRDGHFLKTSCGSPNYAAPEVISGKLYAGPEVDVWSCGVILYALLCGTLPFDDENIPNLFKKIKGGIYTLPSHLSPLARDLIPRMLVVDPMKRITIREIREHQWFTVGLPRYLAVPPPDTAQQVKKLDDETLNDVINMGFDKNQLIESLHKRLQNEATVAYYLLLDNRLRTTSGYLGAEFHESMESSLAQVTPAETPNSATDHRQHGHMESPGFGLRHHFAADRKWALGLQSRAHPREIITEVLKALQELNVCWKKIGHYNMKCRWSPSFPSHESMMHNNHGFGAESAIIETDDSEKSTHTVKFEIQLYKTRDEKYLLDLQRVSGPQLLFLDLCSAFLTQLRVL
Protocol: FIG. 2. The N-terminus of SKIN interacts with the kinase domain of SnRK1A. For the GAL4-UAS two-hybrid assay, rice embryos were co-transfected with effector and reporter plasmids, incubated in −S medium for 24 h, and assayed for luciferase activity. The luciferase activity in rice embryos bombarded with effectors Ubi:GAD, Ubi:GBD and reporter 5XUAS-35S mp:Luc was set to 1×, and other values were calculated relative to this value. Error bars indicate the SE for three replicate experiments. Significance levels: * p<0.1, ** p<0.05. The Y axis indicates the relative luciferase activity with different constructs. (A) Plasmid constructs. (B) Rice embryos were co-transfected with effectors Ubi:GAD-SnRK1A and Ubi:GBD-SKIN (wild type or truncated) and reporter 5XUAS-35S mp:Luc. (C) Rice embryos were co-transfected with effectors Ubi:GAD-SnRK1A [wild type, kinase domain (KD) or regulatory (RD)], Ubi:GBD-SKIN and reporter 5XUAS-35S mp:Luc. (D) Rice embryos were co-transfected with effectors Ubi:GAD-SnRK1A and Ubi:GBD-SKIN and reporter 5XUAS-35S mp:Luc, and incubated in −S medium containing 1 μM ABA.
Rice embryos were prepared for particle bombardment as described (Chen et al., 2006). The rice embryos were bombarded with reporter, effectors and internal control at a ratio of 4:2:1 for single effector or 4:2:2:1 for two effectors. […]

OC[C@H]1O[C@@](CO)(O[C@H]2O[C@H](CO)[C@@H](O)[C@H](O)[C@H]2O)[C@@H](O)[C@@H]1O [sucrose]
Effect of sucrose on retarded shoot elongation of SKIN-Ox lines (rice seedlings [1]): significantly recovered | Effect of sucrose on growth of SKIN-Ox lines (rice seedlings [2]): recover the growth

B1: SKIN1-GFP (other)
chain: MSTAVADVPPAAAYGFPGSAKRGKPEEVVVLMGKRRNEGFFIEEEEEEEEVLTESSSIGAPSPASSSIGENSGEEEGGDDEEEVESKLKAEDEQVGLGCLDALEESLPIKRGLSNFYAGKSKSFTSLAEATASPAAAANELAKPENPFNKRRRILATWSRRASCSSLATATYLPPLLAPDHAVAEGDEGEEEDDDSDDDERQHRGKNGGRRESAAPPLPLPPPRLTLHTQMGGMVRRNGTFRSPRSLSLSDLQNSGGSC
notes: also called Ubi:SKIN1-GFP; SKIN-GFP; not shown: green fluorescence protein (GFP)
binding result [3]: binds

B2: GBD-SKIN2 86-261 (other)
chain: MKLLSSIEQACDICRLKKLKCSKEKPKCAKCLKNNWECRYSPKTKRSPLTRAHLTEVESRLERLEQLFLLIFPREDLDMILKMDSLQDIKALLTGLFVQDNVNKDAVTDRLASVETDMPLTLRQHRISATSSSEESSNKGQRQLTVSSKAKEVAVEVEGGGLGFHGLGTLESLEDALPIKRGLSNFYAGKSKSFTSLAEAAAKAAAKEIAKPENPFNKRRRVLAAWSRRRASCSSLATTYLPPLLAPDHAVVEEEDEEDDSDAEQCSGSGGGNRRREPTFPPPRLSLHAQKSSLTPRSSNPASSFRSPRSFSLSDLQNAGSYN
binding result [4]: no binding
